Assay results as given in US10463651B2, “3-(1H-pyrrolo[3,2-C]pyridin-2-YL)-1H-indazoles and therapeutic uses thereof” (Samumed, LLC, priority 2015, dated 2019).

What was measured:
Type in all cases: cell-based
[1] = tested on: Wnt activity (Sp5-Luc reporter, SW480 colon carcinoma cells); experiment: Screening assay for Wnt activity (Sp5-Luc reporter gene assay in SW480 cells); conditions: Homo sapiens; for EC50: Sp5-Luc reporter, SW480 cells, incubated overnight
Method in brief: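 SW480 colon carcinoma cells stably carrying Sp5 promoter (eight TCF/LEF sites)-driven firefly luciferase, plated at 4,000 cells/well in 1% FBS medium and incubated overnight at 37° C. Luminescence normalised to DMSO-only cells; EC50 from four-parameter variable-slope nonlinear regression.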

[2] = tested on: SW480 colon cancer cells; experiment: Cell viability assay (CellTiter-Blue); conditions: Homo sapiens; for EC50: 96 h, SW480 cell viability, four days, CellTiter-Blue
Method in brief: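 Fluorescence from resazurin reduced to resorufin by metabolically active cells was the read-out, taken after ~3 h with CellTiter-Blue.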

[3] = tested on: primary human fibroblasts derived from IPF patients (LL29 cells) treated with TGF-β1; experiment: Inhibition of the fibrotic process (αSMA staining) in TGF-β1-treated fibroblasts; conditions: Fibroblast, 96 h; for EC50: % αSMA-positive LL29 cells, TGF-β1 20 ng/mL, 4 days
Method in brief: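 LL29 fibroblasts from IPF patients, 1,500 cells/well in F12 with 1% FBS, stimulated with TGF-β1; TGF-β1 plus DMSO wells as controls. Incubation 4 days, then SYTOX green 1 μM final for 30 min at room temperature. Fibrotic response read as αSMA staining.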

[4] = tested on: primary human mesenchymal stem cells (hMSCs); experiment: Induction of chondrogenesis in hMSCs (Rhodamine B / Nile Red nodule imaging); conditions: for EC50: concentration required to induce 50% levels of chondrogenesis vs TGF-β3 positive control, read-out: Conc (nM) of 50% TGF-β3 activity; for Emax: maximum activity relative to TGF-β3 (10 ng/mL) positive control, read-out: Max. Activity as % TGF-β3 activity
Excerpt: Representative compounds were screened using primary human mesenchymal stem cells (hMSCs) to determine their ability to induce chondrogenesis (process by which cartilage is developed).
Primary human mesenchymal stem cells (hMSCs) were purchased from Lonza (Walkersville, Md.) and expanded in Mesenchymal Stem Cell Growth Media (Lonza). Cells between passage 3 and 6 were used for the experiments.
Area of nodules in each well was normalized to the average of 3 DMSO treated wells on the same plate using Excel (Microsoft Inc.). The normalized averages (fold change over DMSO) of 2 or 3 replicate wells for each compound concentration were calculated. Due to solubility limitations of some of the compounds, curve fitting was incomplete leading to inaccurate EC50 determinations.
Using TGF-β3 as a positive control, the concentration of representative compounds required to induce 50% levels of chondrogenesis is reported. In addition, the maximum activity of each compound and the respective dose that each compound reached maximum chondrogenesis activity is reported.

[5] = tested on: IL-6 (THP-1 cells); experiment: IL-6 inhibition in LPS-stimulated THP-1 cells (HTRF); conditions: Homo sapiens; for EC50: IL6 by HTRF, THP-1 cells, 500 ng/mL LPS, 22 hours
Method in brief: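 THP-1 cells, pre-cultured 24 h in 1% FBS medium, treated with compound 2 h at 37 °C, then stimulated with 500 ng/mL LPS for 22 h. Secreted IL-6 measured by HTRF as the 665/620 nm ratio. Values normalized to DMSO; EC50 from four-parameter fit, duplicates.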

EC50 [1]	EC50 [2]	EC50 [4]	EC50 [5]	Structure (SMILES)	EC50 [3]	Emax [4]	inhibition at 10 µM ([2]; SW480, 96 h, read-out: percent inhibition at 10 μM)	inhibition at 10 µM ([3]; read-out: percent inhibition at 10 μM)	inhibition at 10 µM ([5]; THP-1, read-out: percent inhibition at 10 M)	inhibition at 10 µM ([1]; SW480, read-out: percent inhibition at 10 μM)
5270 nM	4820 nM	–	8870 nM	CN1CCN(c2nccc3[nH]c(-c4n[nH]c5ccc(-c6cncc(NC(=O)C7CCCCC7)c6)cc45)cc23)CC1 [Compound 247, N-(5-(3-(4-(4-Methylpiperazin-1-yl)-1H-pyrrolo[3,2-c]pyridin-2-yl)-1H-indazol-5-yl)pyridin-3-yl)cyclohexanecarboxamide]	3350 nM	38%	–	–	–	–
150 nM	533 nM	900 nM	189 nM	CCC(=O)Nc1cncc(-c2ccc3[nH]nc(-c4cc5cnccc5[nH]4)c3c2)c1 [Compound 253, N-(5-(3-(1H-Pyrrolo[3,2-c]pyridin-2-yl)-1H-indazol-5-yl)pyridin-3-yl) propionamide]	499 nM	259%	–	–	–	–
40 nM	68 nM	10 nM	53 nM	c1cncc(-c2ccc3[nH]nc(-c4cc5cnccc5[nH]4)c3c2)c1 [Compound 256, 5-(Pyridin-3-yl)-3-(1H-pyrrolo[3,2-c]pyridin-2-yl)-1H-indazole]	106 nM	341%	–	–	–	–
1040 nM	844 nM	10 nM	451 nM	CCNCc1cncc(-c2ccc3[nH]nc(-c4cc5cnccc5[nH]4)c3c2)c1 [Compound 258, N-((5-(3-(1H-Pyrrolo[3,2-c]pyridin-2-yl)-1H-indazol-5-yl)pyridin-3-yl)methyl)ethanamine]	1260 nM	317%	–	–	–	–
140 nM	333 nM	2700 nM	343 nM	CC(C)C(=O)Nc1cncc(-c2ccc3[nH]nc(-c4cc5cnccc5[nH]4)c3c2)c1 [Compound 261, N-(5-(3-(1H-Pyrrolo[3,2-c]pyridin-2-yl)-1H-indazol-5-yl)pyridin-3-yl)isobutyramide]	362 nM	181%	–	–	–	–
1760 nM	3490 nM	10 nM	1700 nM	O=C(Cc1ccccc1)Nc1cncc(-c2ccc3[nH]nc(-c4cc5cnccc5[nH]4)c3c2)c1 [Compound 262, N-(5-(3-(1H-Pyrrolo[3,2-c]pyridin-2-yl)-1H-indazol-5-yl)pyridin-3-yl)-2-phenylacetamide]	757 nM	119%	–	–	–	–
790 nM	514 nM	–	380 nM	c1cc2[nH]c(-c3n[nH]c4ccc(-c5cncc(CN6CCCC6)c5)cc34)cc2cn1 [Compound 266, 5-(5-(Pyrrolidin-1-ylmethyl)pyridin-3-yl)-3-(1H-pyrrolo[3,2-c]pyridin-2-yl)-1H-indazole]	1850 nM	26%	–	–	–	–
685 nM	422 nM	100 nM	288 nM	c1cc2[nH]c(-c3n[nH]c4ccc(-c5cncc(CN6CCCCC6)c5)cc34)cc2cn1 [Compound 267, 5-(5-(Piperidin-1-ylmethyl)pyridin-3-yl)-3-(1H-pyrrolo[3,2-c]pyridin-2-yl)-1H-indazole]	571 nM	122%	–	–	–	–

Further lines, the compound ahead of its results:

Structure (SMILES)	EC50 [1]	EC50 [2]	EC50 [4]	EC50 [5]	EC50 [3]	Emax [4]	inhibition at 10 µM ([2]; SW480, 96 h, read-out: percent inhibition at 10 μM)	inhibition at 10 µM ([3]; read-out: percent inhibition at 10 μM)	inhibition at 10 µM ([5]; THP-1, read-out: percent inhibition at 10 M)	inhibition at 10 µM ([1]; SW480, read-out: percent inhibition at 10 μM)
CC(C)(C)CC(=O)Nc1cncc(-c2ccc3[nH]nc(-c4cc5c(N6CCCCC6)nccc5[nH]4)c3c2)c1 [Compound 184, 3,3-Dimethyl-N-(5-(3-(4-(piperidin-1-yl)-1H-pyrrolo[3,2-c]pyridin-2-yl)-1H-indazol-5-yl)pyridin-3-yl)butanamide]	2020 nM	1540 nM	900 nM	8900 nM	1470 nM	79%	–	–	–	–
O=C(Nc1cncc(-c2ccc3[nH]nc(-c4cc5c(N6CCCCC6)nccc5[nH]4)c3c2)c1)C1CC1 [Compound 188, N-(5-(3-(4-(Piperidin-1-yl)-1H-pyrrolo[3,2-c]pyridin-2-yl)-1H-indazol-5-yl)pyridin-3-yl)cyclopropanecarboxamide]	1800 nM	972 nM	900 nM	381 nM	9010 nM	146%	–	–	–	–
O=C(Nc1cncc(-c2ccc3[nH]nc(-c4cc5c(N6CCCCC6)nccc5[nH]4)c3c2)c1)C1CCC1 [Compound 189, N-(5-(3-(4-(Piperidin-1-yl)-1H-pyrrolo[3,2-c]pyridin-2-yl)-1H-indazol-5-yl)pyridin-3-yl)cyclobutanecarboxamide]	955 nM	906 nM	–	232 nM	337 nM	34%	–	–	–	–
FC1(F)CCN(Cc2cncc(-c3ccc4[nH]nc(-c5cc6c(N7CCCCC7)nccc6[nH]5)c4c3)c2)C1 [Compound 194, 5-(5-((3,3-difluoropyrrolidin-1-yl)methyl)pyridin-3-yl)-3-(4-(piperidin-1-yl)-1H-pyrrolo[3,2-c]pyridin-2-yl)-1H-indazole]	2000 nM	1420 nM	–	257 nM	1000 nM	40%	–	–	–	–
Cc1ccncc1-c1ccc2[nH]nc(-c3cc4c(N5CCN(C)CC5)nccc4[nH]3)c2c1 [Compound 229, 3-(4-(4-Methylpiperazin-1-yl)-1H-pyrrolo[3,2-c]pyridin-2-yl)-5-(4-methylpyridin-3-yl)-1H-indazole]	3500 nM	3680 nM	–	1090 nM	2980 nM	36%	–	–	–	–
CC(C)C(=O)Nc1cncc(-c2ccc3[nH]nc(-c4cc5c(N6CCN(C)CC6)nccc5[nH]4)c3c2)c1 [Compound 233, N-(5-(3-(4-(4-Methylpiperazin-1-yl)-1H-pyrrolo[3,2-c]pyridin-2-yl)-1H-indazol-5-yl)pyridin-3-yl)isobutyramide]	7690 nM	> 10000 nM	–	6110 nM	4720 nM	21%	38.5%	–	–	–
CN1CCN(c2nccc3[nH]c(-c4n[nH]c5ccc(-c6cncc(NC(=O)c7ccccc7)c6)cc45)cc23)CC1 [Compound 235, N-(5-(3-(4-(4-Methylpiperazin-1-yl)-1H-pyrrolo[3,2-c]pyridin-2-yl)-1H-indazol-5-yl)pyridin-3-yl)benzamide]	2140 nM	3620 nM	–	754 nM	1610 nM	35%	–	–	–	–
CN1CCN(c2nccc3[nH]c(-c4n[nH]c5ccc(-c6cncc(CN7CCCC7)c6)cc45)cc23)CC1 [Compound 238, 3-(4-(4-Methylpiperazin-1-yl)-1H-pyrrolo[3,2-c]pyridin-2-yl)-5-(5-(pyrrolidin-1-ylmethyl)pyridin-3-yl)-1H-indazole]	9380 nM	4190 nM	–	> 10000 nM	> 10000 nM	31%	–	45.7%	40.5%	–
CN1CCN(c2nccc3[nH]c(-c4n[nH]c5ccc(-c6cncc(CN7CCCCC7)c6)cc45)cc23)CC1 [Compound 239, 3-(4-(4-Methylpiperazin-1-yl)-1H-pyrrolo[3,2-c]pyridin-2-yl)-5-(5-(piperidin-1-ylmethyl)pyridin-3-yl)-1H-indazole]	> 10000 nM	3700 nM	900 nM	8420 nM	5120 nM	55%	–	–	–	51%
CCCCC(=O)Nc1cncc(-c2ccc3[nH]nc(-c4cc5c(N6CCN(C)CC6)nccc5[nH]4)c3c2)c1 [Compound 243, N-(5-(3-(4-(4-Methylpiperazin-1-yl)-1H-pyrrolo[3,2-c]pyridin-2-yl)-1H-indazol-5-yl)pyridin-3-yl)pentanamide]	3690 nM	3480 nM	–	3170 nM	1830 nM	49%	–	–	–	–
